Reference: US5624937A, “Chemical compounds as inhibitors of amyloid beta protein production” (Eli Lilly and Company, priority 1995, dated 1997)

Each compound was assayed on Aβ production (APP-751 Swedish mutation transfected cells 293 751 SWE and CHO 751 SWE) (assay: Aβ production inhibition activity in cells (Aβ ELISA of conditioned media, normalized for MTT cytotoxicity)). Details: 2 h pretreatment + 2 h, normalized to MTT, mean of at least six replicate assays, cell line not stated, read-out: IC50 (concentration of test compound required to inhibit Aβ production by 50%).
Assay type: cell-based
Procedure: Two cell lines (human kidney cell line 293 and Chinese hamster ovary cell line CHO) were stably transfected with the gene for APP-751 containing the double mutation Lys651 -Met652 to Asn651 -Leu652 (APP-751 numbering) commonly called the Swedish mutation using the method described in Citron et al., (1992) Nature 360: 672-674. The transfected cell lines were designated as 293 751 SWE and CHO 751 SWE, and were plated in Corning 96 well plates at 2.5×10^4 or 1×10^4 cells per well respectively in Dulbecco's minimal essential media plus 10% fetal bovine serum. Following overnight incubation at 37° C. in an incubator equilibrated with 10% carbon dioxide (CO2), the media were removed and replaced with 200 μL per well of media containing a test compound. After a two hour pretreatment period, the media were again removed and replaced with fresh media containing the test compound and the cells were incubated for an additional two hours.
Test compound stocks were prepared in DMSO such that at the final concentration used in the treatment, the concentration of DMSO did no exceed 0.5%. After treatment, plates were centrifuged in a Beckman GPR at 1200 rpm for five minutes at room temperature to pellet cellular debris from the conditioned media. From each well, 100μL of conditioned media were transferred into an ELISA plate precoated with antibody 266 against βAP-13-28 (Seubert et al , supra.) and stored at 4° C. overnight. An ELISA assay employing labeled antibody 6C6 (against βAP-1-16) was run the next day to measure the amount of Aβ produced.
Cytotoxic effects of the test compounds were measured by a modification of the method of Hansen et al., (1989) J. Immun. Meth. 119: 203-210. To the cells remaining in the tissue culture plate, was added 25 μL of a 3,(4,5-dimethylthiazol-2-yl)2,5-diphenyltetrazolium bromide (MTT) stock solution (5 mg/mL) to a final concentration of 1 mg/mL. Cells were incubated at 37° C. for one hour, and cellular activity was stopped by the addition of an equal volume of MTT lysis buffer (20% w/v sodium dodecylsulfate in 50% DMF, pH 4.7). Complete extraction was achieved by overnight shaking at room temperature. The difference in the OD562 nm and the OD650 nm was measured in a Molecular Devices UVmax microplate reader as an indicator of the cellular viability.
The results of the Aβ ELISA were fit to a standard curve and expressed as ng/mL Aβ peptide. In order to normalize for cytotoxicity, these Aβ results were divided by the MTT results and expressed as a percentage of the results from a drug-free control.
The test compounds were assayed for Aβ production inhibition activity in cells at 10 μg/mL using the test. The results presented in Table 1 are the mean and standard deviation of at least six replicate assays. IC50 means the concentration of test compound in micromoles/liter required to inhibit Aβ production by 50%.
With FC(F)(F)c1cc(NC(=S)Nc2ccc(Sc3ccc4ccccc4n3)cc2)ccc1Cl [Example 1, 1-[4-(2-quinolyl)thiophenyl]-3-(4-chloro-3-trifluoromethyphenyl)thiourea] the IC50 was 3.7 µM. CCOC(=O)c1cc(Sc2ccc(NC(=S)Nc3ccc(Cl)c(C(F)(F)F)c3)cc2)nc2ccccc12 [Example 2, 1-[4-(4-ethoxycarbonyl-2-quinolylthio)phenyl]-3-(4-chloro-3-trifluoromethylphenyl)thiourea] gave an IC50 of 3.1 µM. Compound FC(F)(F)c1cc(NC(=S)Nc2ccc(Sc3ccc4cc(Cl)ccc4n3)cc2)ccc1Cl [Example 3, 1-[4-(6-Chloro-2-quinolylthio)phenyl]-3-(4-chloro-3-trifluoromethylphenyl)thiourea] has an IC50 of 2.7 µM. In the case of FC(F)(F)c1cc(NC(=S)Nc2ccc(Sc3cc(-c4ccccc4)c4ccccc4n3)cc2)ccc1Cl [Example 4, 1-[4-(4-Phenyl-2-quinolylthio)phenyl]-3-(4-chloro-3-trifluoromethylphenyl)thiourea], the IC50 is reported as > 20 µM. Work on COc1ccc2nc(Sc3ccc(NC(=S)Nc4ccc(Cl)c(C(F)(F)F)c4)cc3)ccc2c1 [Example 5, 1-[4-(6-Methoxy-2-quinolylthio)phenyl]-3-(4-chloro-3-trifluoromethylphenyl)thiourea] yielded an IC50 of 4.4 µM. With FC(F)(F)c1cc(NC(=S)Nc2ccc(Sc3ccnc4ccccc34)cc2)ccc1Cl [Example 6, 1-[4-(4-Quinolylthio)phenyl]-3-(4-chloro-3-trifluoromethylphenyl)thiourea] the IC50 was 4.7 µM. FC(F)(F)c1ccc2c(Sc3ccc(NC(=S)Nc4ccc(Cl)c(C(F)(F)F)c4)cc3)ccnc2c1 [Example 7, 1-[4-(7-Trifluoromethyl-4-quinolylthio)phenyl]-3-(4-chloro-3-trifluoromethylphenyl)thiourea] was tested, and the IC50 was 4.5 µM. Work on FC(F)(F)c1cc(NC(=S)Nc2ccc(Sc3ccc4ccccc4c3)cc2)ccc1Cl [Example 8, 1-[4-(2-Naphthylthio)phenyl]-3-(4-chloro-3-trifluoromethylphenyl)thiourea] yielded an IC50 of 2.6 µM. With FC(F)(F)c1cc(NC(=S)Nc2ccc(Sc3cccc4ccccc34)cc2)ccc1Cl [Example 9] the IC50 was 4.9 µM. Work on FC(F)(F)c1cc(NC(=S)Nc2ccc(Sc3nc4ccccc4[nH]3)cc2)ccc1Cl [Example 10, 1-[4-(2-Benzimidazolylthio)phenyl]-3-(4-chloro-3-trifluoromethylphenyl)thiourea] yielded an IC50 of 7.1 µM. For FC(F)(F)c1cc(NC(=S)Nc2ccc(Sc3nc4ccccc4o3)cc2)ccc1Cl [Example 11, 1-[4-(2-Benzoxazolylthio)phenyl]-3-(4-chloro-3-trifluoromethylphenyl)thiourea], the IC50 was 12.5 µM. Work on FC(F)(F)c1cc(NC(=S)Nc2ccc(Sc3nc4ccccc4s3)cc2)ccc1Cl [Example 12, 1-[4-(2-Benzothiazolylthio)phenyl]-3-(4-chloro-3-trifluoromethylphenyl)thiourea] yielded an IC50 of 3.9 µM. In the case of FC(F)(F)c1cc(NC(=S)Nc2ccc(Sc3nc4cc(Cl)ccc4s3)cc2)ccc1Cl [Example 13, 1-[4-(5-Chloro-2-benzothiazolylthio)phenyl]-3-(4-chloro-3-trifluoromethylphenyl)thiourea], the IC50 is reported as 1.7 µM. [O-][S+](c1ccc(NC(=S)Nc2ccc(Cl)c(C(F)(F)F)c2)cc1)c1ccc2ccccc2n1 (stereo not shown) [Example 14, 1-[4-(2-Quinolylsulfinyl)phenyl]-3-(4-chloro-3-trifluoromethylphenyl)thiourea] gave an IC50 of 12.1 µM. O=S(=O)(c1ccc(NC(=S)Nc2ccc(Cl)c(C(F)(F)F)c2)cc1)c1ccc2ccccc2n1 [Example 15, 1-[4-(2-Quinolylsulfonyl)phenyl]-3-(4-chloro-3-trifluoromethylphenyl)thiourea] showed an IC50 of 3.7 µM. Compound FC(F)(F)c1cc(NC(=S)Nc2ccc(Nc3ccc4ccccc4n3)cc2)ccc1Cl [Example 16, 1-[4-(2-quinolylamino)phenyl]-3-(4-chloro-3-trifluoromethylphenyl)thiourea] has an IC50 of 11.8 µM. For FC(F)(F)c1cc(NC(=S)Nc2ccc(Oc3ccc4ccccc4n3)cc2)ccc1Cl [Example 17, 1-[4-(2-Quinolyloxy)phenyl]-3-(4-chloro-3-trifluoromethylphenyl)thiourea], the IC50 was 9.7 µM. O=C(Nc1ccc(Sc2ccc3ccccc3n2)cc1)Nc1ccc(Cl)c(C(F)(F)F)c1 [Example 18, 1-[4-(2-Quinolylthio)phenyl]-3-(4-chloro-3-trifluoromethylphenyl]urea] was tested, and the IC50 was > 20 µM. S=C(Nc1ccc(Sc2ccc3ccccc3n2)cc1)Nc1ccc(Cl)c(Cl)c1 [Example 19, 1-[4-(2-Quinolylthio)phenyl]-3-(3,4-dichlorophenyl)thiourea] was tested, and the IC50 was 13.8 µM. With FC(F)(F)c1cc(NC(=S)Nc2ccc(Sc3ccc(-c4ccccc4)nn3)cc2)ccc1Cl [Example 20] the IC50 was 4.4 µM. Work on FC(F)(F)c1cc(NC(=S)Nc2ccc(Sc3ccccn3)cc2)ccc1Cl [Example 21] yielded an IC50 of 8.3 µM. Compound O=[N+]([O-])c1c(Sc2ccc(NC(=S)Nc3ccc(Cl)c(C(F)(F)F)c3)cc2)ccc2ncccc12 [Example 22] has an IC50 of 4.3 µM.
